Experimental data published in patent publication US12599596B2, “Anti-tumor pharmaceutical composition based on immune checkpoint blockade and use thereof” (Shanghai Hui Tian Jin Ze Biotech Co., Ltd., priority 2023, dated 2026).

How the values were obtained:
MC38 colon cancer cells [1] = test: MC38 subcutaneous tumor model in C57BL/6 mice, Embodiment 5; format: in vivo; conditions: for Tumor volume: CBD 100 mg/kg, PAR 5 mg/kg, vitamin E 50 mg/kg
Description: MC38 colon cancer cells were inoculated into 6-week-old female C57BL/6 mice (1×10^6 cells/mouse) to establish a subcutaneous tumor model. After the tumor volume reached 50 mm^3, the mice were grouped and administered with the following pharmaceutical combinations: (1) control group (no drug administration), (2) anti-PD-1 ([…] per time) group, (3) vitamin E(α-tocopherol) (50 mg/kg) group, (4) CBD (100 mg/kg) group, (5) CBD (100 mg/kg)+vitamin E(α-tocopherol) (50 mg/kg) group, (6) PAR (5 mg/kg) group, (7) PAR (5 mg/kg)+vitamin E(α-tocopherol) (50 mg/kg) group, (8) CBD (100 mg/kg)+PAR (5 mg/kg) group, and (9) PAR (5 mg/kg)+CBD (100 mg/kg)+vitamin E(α-tocopherol) (50 mg/kg) group.
The tumor weight, tumor volume, and mouse body weight were monitored once every 2 days. The tumor volume was calculated as follows: tumor volume (mm^3)=0.5×(length)×(width)^2. The mice were sacrificed 14 days after drug administration, and the tumors were dissected.
The dissolving mode of the pharmaceutical composition was as follows: the pharmaceutical composition was dissolved in 10% DMSO+corn oil, the mice were gavaged with the pharmaceutical composition at 100 μl/mice, and the mice in the control group were injected with the same volume of the solvent.

[2] = tested on: PD-L1 in H1975 lung cancer cells; test: PD-L1 expression by Western blotting; format: cell-based; conditions: concentration-dependent at 5, 10, 20 μM, 24 h
Description: (§1) Different types of well-grown tumor cells (RKO colorectal cancer cells, H1975 lung cancer cells, and A549 lung cancer cells) with a density of 80% or more were respectively spread on a 6-well plate at a density of 5×10^4 cells/well, the volume of the suspension in each well was 2 mL, and the cells were subsequently placed in an incubator at 37° C. for culture. […] After the cells were continuously cultured for 24 h, the culture was terminated, and subsequent detection was conducted.
(§2) After the culture was terminated, the cells were collected and washed with cold PBS 2 times. After the PBS residue was removed, a proper amount of cell lysate was added for cracking, and the cells were incubated on ice for 15 min and then centrifuged on a 4° C. centrifuge at 12,000 rpm for 15 min. The supernatant was carefully aspirated, the protein concentration was measured via the BCA method, a corresponding amount of loading buffer was added, the cells were evenly shaken and incubated in a 100° C. water bath for 10 min, and finally, the sample was subjected to a protein immunoblotting experiment.

[3] = tested on: PD-L1 in A549 lung cancer cells; test: PD-L1 expression by Western blotting; format: cell-based; conditions: concentration-dependent at 5, 10, 20 μM, 24 h
Description: as §1, §2

[4] = tested on: PD-L1 in RKO colorectal cancer cells; test: PD-L1 expression by Western blotting; format: cell-based; conditions: concentration-dependent at 5, 10, 20 μM, 24 h
Description: as §1, §2

[5] = tested on: PD-L1 on RKO colon cancer cell membranes; test: PD-L1 on cell membrane by immunofluorescence; format: cell-based; conditions: 20 μM CBD, different time
Description: • (1) Different types of tumor cells (RKO, HCT116 and HT29 colon cancer cells, and A549, H1975 and H460 lung cancer cells) in the logarithmic growth phase were respectively inoculated on a 6-well plate at an inoculum density of 2.5×10^5 cells/well with 2 mL/well and then placed in a cell incubator overnight incubation. The culture mixture was removed, CBD at different concentrations (0 μM, 5 μM, 10 μM, and 20 μM) was added for treatment for 24 h, the supernatant was removed, and the cells were washed with PBS 2 times, digested with pancreatin, centrifuged at 300×g and 4° C. for 5 min, and collected. The cells were washed with precooled PBS 2 times, centrifuged at 300×g and 4° C. for 5 min, and collected. The cells were washed 2 times with precooled PBS, 100 μL of PBS was added to resuspend the cells, an anti-PD-L1-Alexa Fluor 647 antibody was added, the cells were incubated at room temperature for 30 min and centrifuged at 300×g and 4° C. for 5 min, 300 μL of PBS was added to resuspend the cells in a flow tube, and an Alexa Fluor 647 signal was detected from the sample using a flow cytometer (excitation/emission wavelength of 647 nm/666 nm). • (2) The colorectal cancer cells (RKO) in the logarithmic growth phase were inoculated into a 6-well plate at a density of 2.5×10^5 cells/well, with a 2 mL volume of the suspension in each well. […]

MC38 colon cancer cells [6] = test: MC38 subcutaneous tumor model, curcumin-administrated groups, Embodiment 4; format: in vivo, C57BL/6 mice; conditions: CBD 100 mg/kg, curcumin 50 mg/kg, piperine 1 mg/kg, vitamin E 50 mg/kg, thymosin 2 mg/kg; vs control
Description: MC38 colon cancer cells were inoculated into 6-week-old female C57BL/6 mice (1×10^6 cells/mouse) to establish a subcutaneous tumor model. After the tumor volume reached 50 mm^3, the mice in the artemisinin-administered groups were grouped and administered with the following pharmaceutical combinations: (1) control group, (2) CBD (100 mg/kg)+vitamin E(α-tocopherol) (50 mg/kg)+thymosin (2 mg/kg) group, and (3) CBD (100 mg/kg)+artemisinin (20 mg/kg)+vitamin E(α-tocopherol) (50 mg/kg)+thymosin (2 mg/kg). The mice in curcumin-administrated group were grouped and administered with the following pharmaceutical combinations: (1) control group, (2) CBD (100 mg/kg) group, (3) curcumin (50 mg/kg)+piperine (1 mg/kg) group, (4) CBD (100 mg/kg)+curcumin (50 mg/kg)+piperine group (1 mg/kg), and (5) CBD (100 mg/kg)+curcumin (50 mg/kg)+piperine (1 mg/kg)+vitamin E(α-tocopherol) (50 mg/kg)+thymosin (2 mg/kg).
The tumor growth volume of the mice was monitored once every 2 days. The tumor volume was calculated as follows: tumor volume (mm^3)=0.5×(length)x(width)^2. The mice were sacrificed 14 days after drug administration, and the tumors were dissected. […]

Structure (SMILES): C=C(C)[C@@H]1CCC(C)=C[C@H]1c1c(O)cc(CCCCC)cc1O [CBD, cannabidiol]
- Tumor volume (MC38 colon cancer cells [1]; Day 0): 0 mm^3
- Tumor volume (MC38 colon cancer cells [1]; Day 4): 63.99 mm^3
- Tumor volume (MC38 colon cancer cells [1]; Day 6): 113.24 mm^3
- Tumor volume (MC38 colon cancer cells [1]; Day 8): 120.48 mm^3
- Tumor volume (MC38 colon cancer cells [1]; Day 10): 176.51 mm^3
- Tumor volume (MC38 colon cancer cells [1]; Day 12): 241.75 mm^3
- Tumor volume (MC38 colon cancer cells [1]; Day 14): 314.83 mm^3
- Tumor volume (MC38 colon cancer cells [1]; Day 16): 359.72 mm^3
- therapeutic / tumor inhibition effect in words (MC38 colon cancer cells [1]; normal mice, Embodiment 5, comparison between groups): equivalent therapeutic effects
- expression of PD-L1 (Western blotting) [2]: significantly inhibited the expression of PD-L1
- expression of PD-L1 (Western blotting) [3]: significantly inhibited the expression of PD-L1
- expression of PD-L1 (Western blotting) [4]: significantly inhibited the expression of PD-L1
- expression of PD-L1 on cell membranes (immunofluorescence) [5]: time-dependently decreased the expression of PD-L1
- tumor growth / anti-tumor effect in words (MC38 colon cancer cells [6]): inhibited to a certain degree
